Results from patent US4146622A, “Aziridinyl quinone anti-transplanted tumor agents” (priority 1977, dated 1979).
≈ marks a conversion by molar mass, not a printed value. Where “and” joins values, the source holds several entries; their conditions need not be identical. Equal values may be shown once. Entries after “also recorded” stand apart in the source; their conditions may differ.

Legend:
[1] = tested on: lymphoid leukemia L1210; assay: Intraperitoneal (IP) lymphoid leukemia L1210 transplanted mouse tumor test; assay type: in vivo, murine; conditions: for T - C (average weight change of test group minus control): day 5
Description: ^(a) Day 1-9 treatment schedule (9 injections)
^(b) Day 1,5,9 treatment schedule (3 injections)
^(c) Day 1 only treatment schedule (1 injection)
^(f) Percentage increase in life span of treated animals [(treated
survival .div. control survival) × 100%] - 100%

[2] = tested on: B16 melanocarcinoma; assay: Intraperitoneal B16 melanocarcinoma transplanted mouse tumor test; assay type: in vivo, murine; conditions: for antitumor activity: B16 melanoma; for OD (optimum dose) / ILS (percentage increase in life span): Table IX; for OD (optimum dose): B16, QD1-9; for ILS (percentage increase in life span): B16, QD1-9, at OD
Description: ^b Ip tumor implantation, ip QD1-9 treatment schedule.
The L1210, P388 and B16 test systems described in Table II utilize intraperitoneal (IP) tumor implantation and IP drug treatment while the Lewis lung system employs subcutaneous tumor implantation and IP treatment.
Aqueous saline solution (0.9%) was used as the drug vehicle. Normally, five doses were employed per experiment with the top dose chosen to produce toxicity. The lower doses were 50% of each preceeding dose.
Consistent with NCI antitumor test protocols, intraperitoneal (IP) administration of the drug was employed with all five tumor systems investigated. Tumor implantation was IP in the systems designated IP leukemia L1210 and P388 as well as B16 melanoma.

[3] = tested on: lymphoid leukemia L1210; assay: Intracerebral (IC) lymphoid leukemia L1210 test; assay type: in vivo, murine; conditions: Table X
Description: ^b Ic tumor implantation, ip QD1-9 treatment schedule.
The L1210, P388 and B16 test systems described in Table II utilize intraperitoneal (IP) tumor implantation and IP drug treatment while the Lewis lung system employs subcutaneous tumor implantation and IP treatment. All three CNS tumor models (Table III) use intracerebral (IC) tumor implantation and IP treatment.
Consistent with NCI antitumor test protocols, intraperitoneal (IP) administration of the drug was employed with all five tumor systems investigated. Tumor implantation was IP in the systems designated IP leukemia L1210 and P388 as well as B16 melanoma. Intracerebral (IC) tumor implantation was utilized in the IC L1210 and ependymoblastoma tumor systems.

[4] = tested on: ependymoblastoma; assay: Intracerebral (IC) ependymoblastoma (EM) brain tumor test; assay type: in vivo, murine; conditions: for antitumor activity: IC ependymoblastoma (EM); for OD (optimum dose) / animals alive per 6 test animals on day of termination / ILS (percentage increase in life span): Table X, IC ependymoblastoma; for OD (optimum dose): QD1-5; for animals alive per 6 test animals on day of termination / ILS (percentage increase in life span): QD1-5, at OD; for animals alive per 6 test animals on day of termination / survivors (number in parentheses) EM: day 60; for survivors (number in parentheses) EM: per 6 test animals
Description: ^c Ic tumor implantation, ip QD1-5 treatment schedule.
^g Number of animals alive per six test animals on day of termination
of experiment (day 99 for expt 133 and day 60 for expt 136 and 144).
A third IC transplanted mouse tumor model, the ependymoblastoma system, was also studied. This system requires intracerebral implantation of a solid tumor fragment while the IC L1210 and IC P388 systems utilize IC inoculated ascites tumor fluid. All three use IP drug treatment however. […] Cures (survivors from the group of six mice on the last day of the experiment) are indicated. Experiments 136 and 144 were terminated on day 60. Since the number of cures was about the same, the differences in T/C values in these two experiments reflect differences in the life span of the two different sets of control animals. Experiment 133 was terminated on day 99 with a resulting higher activity value.
The hydrophilic dihydroxypropylamino compound (No. 39), which was curative in the IP L1210 and P388 leukemia systems, was active but gave a large spread in ILS values (53-186%). […] Again, its hydrophilic character may present transport problems in this IC tumor system.

[5] = Room temperature water solubility; assay type: physicochemical; conditions: water; Table VII; room temperature, approximate; read-out: Approx. H2O Sol.
Description: In the following examples, all melting points are uncorrected and were recorded on a Thomas-Hoover capillary melting point apparatus. Elemental analyses were performed by NIAMDD, NIH, Bethesda, Maryland. Fluoranil, ethyleneimine and 2l -methylethyleneimine were obtained commerically. […] New compounds were identified by nmr and ir spectroscopy. In the tetraamino derivatives, the methylene protons of the aziridine rings usually occurred as a singlet at δ2.0-2.2 in CDCl3 or DMSO-d6. This absorption appeared at δ2.40 (CDCl3) for compound 11. Carbonyl absorption frequencies (nujol mull) occurred in the range 1620-1640 cm^-1 for the tetraamino compounds. Satisfactory elemental analyses (+0.4% of calculated values) are indicated by elemental symbols in Table VII. Room temperature water solubilities were determined by the incremental addition (pipet) of water to a weighed amount of compound with shaking. The solubility values in Table VII must be considered as approximate.

[6] = tested on: P388 lymphocytic leukemia; assay: Intraperitoneal (IP) lymphocytic leukemia P388 transplanted mouse tumor test; assay type: in vivo, murine; conditions: for OD (optimum dose): IP P388, QD1-9
[7] = L1210 system, Q4D and QD1-9 schedules
[8] = Table VIII, IP L1210, Day 1 only (1 injection)
[9] = Table VIII, IP L1210, Day 1 only, at OD
[10] = Table VIII, IP L1210, Q4D(1,5,9) (3 injections)
[11] = Table VIII, IP L1210, Q4D(1,5,9), at OD
[12] = Table VIII, IP L1210, QD1-9 (9 injections)
[13] = Table VIII, IP L1210, QD1-9, at OD
[14] = Table IX, IP P388, QD1-9, at OD
[15] = IP L1210, tetraaminobenzoquinone series (Table VIII)

CCSC1=C(N2CC2)C(=O)C(SCC)=C(N2CC2)C1=O [Compound 5]
activity (%ILS) ([1]; IP L1210, Q4D schedule): 30% | antitumor activity [1, 7]: the activity was not reproducible

CCCSC1=C(N2CC2)C(=O)C(SCCC)=C(N2CC2)C1=O [Compound 6]
antitumor activity [1, 7]: inactive

CCOC(=O)NC1=C(N2CC2C)C(=O)C(NC(=O)OCC)=C(N2CC2C)C1=O (centres unmarked) [Compound 10]
antitumor activity [1, 7]: abolished activity

CCOC(=O)NC1=C(N2CC2(C)C)C(=O)C(NC(=O)OCC)=C(N2CC2(C)C)C1=O [Compound 11]
antitumor activity [1, 7]: abolished activity

CCOC(=O)NC1=C(NCCCl)C(=O)C(NC(=O)OCC)=C(NCCCl)C1=O [Compound 12]
antitumor activity [1, 7]: activity was abolished

CC(=O)NC1=C(N2CC2(C)C)C(=O)C(NC(C)=O)=C(N2CC2(C)C)C1=O [Compound 21]
antitumor activity [1, 7]: abolished activity

CNC1=C(N2CC2C)C(=O)C(NC)=C(N2CC2C)C1=O (centres unmarked) [Compound 26]
OD (optimum dose) [1, 8]: 5.0 mg/kg/injection and 10.0 mg/kg/injection | ILS (percentage increase in life span) [1, 9]: 42% and 39% | OD (optimum dose) [1, 10]: 12.5 mg/kg/injection | ILS (percentage increase in life span) [1, 11]: 93% and 52% | OD (optimum dose) [1, 12]: 5.0 mg/kg/injection | ILS (percentage increase in life span) [1, 13]: 69% and 37% | antitumor activity [2]: active | OD (optimum dose) [2]: 5.0 mg/kg/injection | ILS (percentage increase in life span) [2]: 70% and 48% | ILS (%) B16 ([2]; Table XI, outstanding activity): 70% | OD (optimum dose) ([3]; IC L1210, QD1-9): 5.0 mg/kg/injection and 10.0 mg/kg/injection | ILS (percentage increase in life span) ([3]; IC L1210, QD1-9, at OD): 39% and 25% | antitumor activity [4]: highly active | OD (optimum dose) [4]: 10.0 mg/kg/injection and 5.0 mg/kg/injection | animals alive per 6 test animals on day of termination [4]: 1 | ILS (%) EM ([4]; Table XI, outstanding activity): 294% | survivors (number in parentheses) EM ([4]; Table XI): 1 | solubility [5]: < 100 µg/mL

O=C1C(F)=C(N2CC2)C(=O)C(N2CCOCC2)=C1N1CC1 [Compound 31, 2,5-diaziridinyl-3-fluoro-5-morpholino-1,4-benzoquinone]
antitumor activity ([6]; IP P388): active | OD (optimum dose) ([6]; Table IX): 3.0 mg/kg/injection and 6.0 mg/kg/injection | ILS (percentage increase in life span) [6, 14]: 57% and 54% | OD (optimum dose) [2]: 0.7 mg/kg/injection | ILS (percentage increase in life span) [2]: 18% and 9% | OD (optimum dose) [4]: 0.8 mg/kg/injection and 1.5 mg/kg/injection | ILS (percentage increase in life span) [4]: 49% and 40% | solubility [5]: 2000 µg/mL (≈ 6820 µM)

CCCNC1=C(N2CC2)C(=O)C(NCCC)=C(N2CC2)C1=O [Compound 36]
antitumor activity [1, 15]: significant reduction in activity | OD (optimum dose) [1, 10]: 6.2 mg/kg/injection | ILS (percentage increase in life span) [1, 11]: 28% and 25% | OD (optimum dose) [1, 12]: 6.2 mg/kg/injection | ILS (percentage increase in life span) [1, 13]: 48% and 43% | OD (optimum dose) ([6]; Table IX): 6.0 mg/kg/injection | ILS (percentage increase in life span) [6, 14]: 151% and 108% | animals alive per 6 test animals on day of termination ([6]; Table IX, IP P388, QD1-9, at OD, day 30): 2 | survivors (number in parentheses) P388 ([6]; Table XI, per 6 test animals, day 30): 2 | OD (optimum dose) [2]: 5.0 mg/kg/injection | ILS (percentage increase in life span) [2]: 36% and 32% | antitumor activity [4]: highly active; also recorded: still very active; also recorded: most active | OD (optimum dose) [4]: 10.0 mg/kg/injection and 5.0 mg/kg/injection | ILS (percentage increase in life span) [4]: 259% and 143% | animals alive per 6 test animals on day of termination [4]: 2 and 1 | survivors (number in parentheses) EM ([4]; Table XI): 2 | solubility [5]: < 100 µg/mL

CCCCNC1=C(N2CC2)C(=O)C(NCCCC)=C(N2CC2)C1=O [Compound 37]
antitumor activity [1, 15]: significant reduction in activity | OD (optimum dose) [1, 8]: 10.0 mg/kg/injection | ILS (percentage increase in life span) [1, 9]: 11% and 5% | OD (optimum dose) [1, 10]: 12.5 mg/kg/injection and 8.2 mg/kg/injection | ILS (percentage increase in life span) [1, 11]: 44% and 25% | OD (optimum dose) [1, 12]: 10.0 mg/kg/injection and 5.0 mg/kg/injection | ILS (percentage increase in life span) [1, 13]: 36% and 30% | OD (optimum dose) ([6]; Table IX): 5.0 mg/kg/injection and 10.0 mg/kg/injection | ILS (percentage increase in life span) [6, 14]: 64% and 49% | OD (optimum dose) [2]: 10.0 mg/kg/injection and 5.0 mg/kg/injection | antitumor activity [4]: has activity | OD (optimum dose) [4]: 6.0 mg/kg/injection and 3.0 mg/kg/injection | solubility [5]: < 100 µg/mL

O=C1C(N2CCCC2)=C(N2CC2)C(=O)C(N2CCCC2)=C1N1CC1 [Compound 43, 2,5-Diaziridinyl-3,6-dipyrrolidino-1,4-benzoquinone]
OD (optimum dose) [1, 8]: 4.0 mg/kg/injection and 2.0 mg/kg/injection | OD (optimum dose) [1, 10]: 6.2 mg/kg/injection | ILS (percentage increase in life span) [1, 11]: 43% | T - C (average weight change of test group minus control) [1, 11]: -2.3 grams | OD (optimum dose) [1, 12]: 2.0 mg/kg/injection | ILS (percentage increase in life span) [6, 14]: 72% and 55% | OD (optimum dose) [2]: 2.0 mg/kg/injection | ILS (percentage increase in life span) [2]: 28% and 18% | OD (optimum dose) [4]: 1.6 mg/kg/injection and 3.1 mg/kg/injection | solubility [5]: 500 µg/mL (≈ 1520 µM)

O=C1C(N2CCCCC2)=C(N2CC2)C(=O)C(N2CCCCC2)=C1N1CC1 [Compound 44]
ILS (percentage increase in life span) [1, 9]: 16% and 8% | ILS (percentage increase in life span) [1, 11]: 26% and 22% | OD (optimum dose) [1, 12]: 10.0 mg/kg/injection | ILS (percentage increase in life span) [1, 13]: 28% | T - C (average weight change of test group minus control) [1, 13]: -2.2 grams | OD (optimum dose) ([6]; Table IX): 5.0 mg/kg/injection and 10.0 mg/kg/injection | ILS (percentage increase in life span) [6, 14]: 46% and 77% | OD (optimum dose) [2]: 5.0 mg/kg/injection and 2.5 mg/kg/injection | ILS (percentage increase in life span) [4]: 68% and 46% | solubility [5]: < 100 µg/mL

O=C1C(N2CC2)=C(N2CCCC(O)C2)C(=O)C(N2CC2)=C1N1CCCC(O)C1 (centres unmarked) [Compound 45]
OD (optimum dose) [1, 10]: 6.0 mg/kg/injection and 4.0 mg/kg/injection | ILS (percentage increase in life span) [1, 11]: 104% and 84% | animals alive per 6 test animals on day of termination ([1]; Table VIII, IP L1210, Q4D(1,5,9), at OD, day 30): 2 | OD (optimum dose) [1, 12]: 3.0 mg/kg/injection | ILS (percentage increase in life span) [1, 13]: 59% and 44% | OD (optimum dose) ([6]; Table IX): 1.0 mg/kg/injection | ILS (percentage increase in life span) [6, 14]: 95% and 78% | antitumor activity [2]: approached minimal reproducible activity | OD (optimum dose) [2]: 1.0 mg/kg/injection | ILS (percentage increase in life span) [2]: 40% and 37% | ILS (percentage increase in life span) [4]: 64% and 48% | solubility [5]: 1000 µg/mL (≈ 2570 µM)
